Source: patent publication US20230355690A1, “METHOD OF TREATMENT WITH LACTIC ACID BACTERIA” (UNIVERSITY-INDUSTRY COOPERATION GROUP OF KYUNG HEE …, priority 2017, published 2023)

Key:
[1] = system: animal model with induced allergic rhinitis and asthma; assay: Example 6: OVA-induced allergic rhinitis and asthma mice, indicators in serum and BALF (ELISA, FACS); format: in vivo, mouse; conditions: oral once daily for five days, Dx 1 mg/kg intraperitoneal
Protocol: Seven week-old BALB/C female mice (21-23 g) were acclimated for one week on condition of a controlled environment with humidity of 50%, temperature of 25° C., and light/dark cycle of 12:12 hours. After that, 20 μg of allergy-inducing ovalbumin (OVA) and 2 mg of aluminum hydroxide (Alum) were suspended into 0.2 ml of phosphate buffered saline (PBS: pH 7.4) and intraperitoneally injected into each of the mice on initial and 14th days of an experiment. Then, 100 μg of the OVA was dissolved in 10 μl of distilled water, and intranasally smeared onto each of the mice to induce allergic rhinitis and asthma therefrom on 26th, 27th and 28th days of the experiment. Meanwhile, a test drug, i.e., lactic acid bacteria were orally administered into each of the mice once daily for a total of five days from 26th to 30th days of the experiment. Also, dexamethasone, which was used as a positive control drug instead of lactic acid bacteria, was intraperitoneally administered at a dose of 1 mg/kg b.w. Further, in case of the mice of a normal group, allergic rhinitis and asthma were not induced therefrom, but only the phosphate buffered saline (PBS: pH 7.4) was orally administered thereinto instead of the OVA and the test drug. Furthermore, in case of the mice of a control group, allergic rhinitis and asthma were induced therefrom, and only the phosphate buffered saline (PBS: pH 7.4) was orally administered thereinto as the test drug. After an end of the experiment, the mice were anesthetized, after which blood, lung tissues and the BALF were collected therefrom. Serum was isolated from the blood collected by means of centrifugation, and used as an assay sample. Indicators related to anti-rhinitis and anti-asthma effects were analyzed from serum, the BALF and lung tissues by using various analysis methods. Each analysis method and indicators analyzed thereby are as follows. • Enzyme-linked immunosorbent assay (ELISA): IL-10, IL-5, IL-6, IL-4, IgE, etc. • FACS (fluorescence-activated cell sorting): Distribution of T cells (Th1: CD4^+/IFN-γ^+; Th2: CD4^+/IL-4^+; Treg: CD4^+/FOXp3^+; Th17: CD4^+/IL-17^+), Distribution of eosinophils (CD11b^+, Siglec-F^+)

[2] = system: Th17 cell; assay: Spleen T cell differentiation into Th17 cells, FACS; format: cell-based; conditions: C56BL/6J mouse spleen CD4 T cells; lactic acid bacteria 1×10^5 CFU per well, four days
Protocol: (§1) Particularly, a spleen was isolated from a C56BL/6J mouse, then crushed, then suspended in an RPMI 1640 medium containing 10% FCS, and then CD4 T cells were isolated by using a CD4 T cell isolation kit (MiltenyiBiotec, Bergisch Gladbach, Germany). The isolated CD4 T cells were divided into a 12-well plate at 5×10^5 cells per well. After that, the cells were cultured in each well with an addition of anti-CD3, anti-CD28, IL-2 and IL-12 to induce a differentiation of T cells into Th1 cells; with the addition of anti-CD3, anti-CD28, IL-2 and IL-4 to induce the differentiation of T cells into Th2 cells; with the addition of anti-CD3, anti-CD28, IL-6 and TGF-β to induce the differentiation of T cells into Th17 cells; and with the addition of anti-CD3 and anti-CD28 to induce the differentiation of T cells into Treg cells, and a test material, i.e., lactic acid bacteria were inserted thereinto at 1×10^5 CFU per well, and then cultured for four days. Also, in order to compare the effects of lactic acid bacteria, various prebiotics were used as the test material.
(§2) After that, a differentiation potency of the T cells isolated from the spleen into Th1, Th2, Th17 and Treg cells was measured. Particularly, the cells of culture fluid were stained with anti-FOXp3 or anti-IL-17A antibodies, after which a distribution of Th1, Th2, Th17 and Treg cells was analyzed by means of a FACS (fluorescence-activated cell sorting) device (C6 Flow Cytometer® System, San Jose, CA, USA), wherein results thereof are shown in following tables 11 to 13. In the tables 11 to 13 below, the lactic acid bacteria are shown without species names thereof, and are given strain names assigned by the present inventors.

[3] = system: Th1 cell; assay: Spleen T cell differentiation into Th1 cells, FACS; format: cell-based; conditions: C56BL/6J mouse spleen CD4 T cells; lactic acid bacteria 1×10^5 CFU per well, four days
Protocol: as §1, §2

[4] = system: NF-κB (p-p65/p65); assay: Inflammation reaction inhibiting effect on macrophage (LPS): NF-κB activation, immunoblotting; format: cell-based; conditions: C57BL/6J mouse peritoneal macrophage + LPS; lactic acid bacteria 1×10^4 CFU/ml
Protocol: (§3) A six-week old C57BL/6J male mouse (20-23 g) was purchased from Raonbio Co., Ltd. 2 ml of sterilized 4% thioglycolate was intraperitoneally administered into the mouse, which was then anesthetized in 96 hours later. After that, 8 ml of RPMI 1640 medium was intraperitoneally administered to the mouse. In 5 to 10 minutes later, the RPMI medium (including macrophage) was intraperitoneally extracted again from the mouse, then centrifuged on condition of 1000 rpm for 10 minutes, and then washed twice again with the RPMI 1640 medium. The macrophage was plated into a 24-well plate at 0.5×10^6 cells per well, then cultured for 24 hours, and then unattached cells were removed therefrom. The macrophage culture fluid was treated with a test material, i.e., lactic acid bacteria as well as an inflammation reaction inducer, i.e., lipopolysaccharide (LPS) for 90 minutes or 24 hours, and then supernatant and cells were obtained therefrom. At that time, a treatment concentration of lactic acid bacteria was 1×10^4 CFU/ml. Also, in order to compare the effects of lactic acid bacteria, various prebiotics were used as the test material.
An expression level of TNF-α from said obtained supernatant was measured by means of an ELISA kit. Also, the expression level of p65 (NF-κB), p-p65 (phosphor-NF-κB) and β-actin was measured from said obtained cells by means of an immunoblotting method. Particularly, 50 μg of the supernatant was taken and subjected to electrophoresis in SDS 10% (w/v) polyacrylamide gel for one and half an hour. The electrophoresed sample was transferred onto a nitrocellulose paper on condition of 100 V and 400 mA for one hour and 10 minutes. The nitrocellulose paper, onto which the sample was transferred, was subjected to blocking by means of 5% skim milk for 30 minutes, then washed with PBS-Tween three times for five minutes each, and then subjected to reaction overnight with an addition of primary antibodies (Santa Cruz Biotechnology, the U.S.) at a ratio of 1:100. After that, such paper was washed three times for ten minutes each, and subjected to reaction with the addition of secondary antibodies (Santa Cruz Biotechnology, the U.S.) at a ratio of 1:1000 for one hour and 20 minutes. Then, such paper was washed three times for 15 minutes each, then subjected to fluorescent color formation, then developed, and then the intensity of chromophore band was measured.

[5] = system: IL-12; assay: Inflammation reaction inhibiting effect on dendritic cells (LPS): IL-12 expression, ELISA; format: cell-based; conditions: C57BL/6 mouse bone marrow dendritic cells + LPS; lactic acid bacteria 1×10^4 CFU/ml
Text: (§4) Immune cells were isolated from the bone marrow of a C57BL/6 mouse (male, 20-23 g) by using RPMI 1640 containing 10% FBS, 1% antibiotics, 1% glutamax and 0.1% mercaptoethanol, then treated with RBC lysis buffer, and then washed. Said cells were divided into each well of a 24-well plate, then treated with GM-CSF and IL-4 at a ratio of 1:1000, and then cultured. On a 5th day of culture, the cells were replaced with a new medium, then collected on an 8th day thereof, and then used as dendritic cells. After that, the dendritic cells were plated into a 24-well plate at 0.5×10^6 cells per well, then treated with a test material, i.e., lactic acid bacteria, as well as an inflammation reaction inducer, i.e., lipopolysaccharide (LPS) for 90 minutes or 24 hours, and then supernatant and cells were obtained therefrom. At that time, a treatment concentration of lactic acid bacteria was 1×10^4 CFU/ml. Also, in order to compare the effects of lactic acid bacteria, various prebiotics were used as the test material.
(§5) An expression level of IL-10 and IL-12 was measured from said obtained supernatant by means of an ELISA kit. Also, the expression level of p65 (NF-κB), p-p65 (phosphor-NF-κB) and β-actin was measured from the cells, which have been obtained after being treated with the test material for 90 minutes, by means of the same immunoblotting method as in Example 2.(1) above. The results of testing the inflammation reaction inhibiting effect of lactic acid bacteria on dendritic cells are shown in following tables 8 to 10.

[6] = system: Th2 cell; assay: Spleen T cell differentiation into Th2 cells, FACS; format: cell-based; conditions: C56BL/6J mouse spleen CD4 T cells; lactic acid bacteria 1×10^5 CFU per well, four days
Protocol: as §1, §2

[7] = system: Treg cell; assay: Spleen T cell differentiation into Treg cells, FACS; format: cell-based; conditions: C56BL/6J mouse spleen CD4 T cells; lactic acid bacteria 1×10^5 CFU per well, four days
Protocol: as §1, §2

[8] = system: IL-10; assay: Inflammation reaction inhibiting effect on dendritic cells (LPS): IL-10 expression, ELISA; format: cell-based; conditions: C57BL/6 mouse bone marrow dendritic cells + LPS; lactic acid bacteria 1×10^4 CFU/ml
Text: as §4, §5

[9] = system: NF-κB (p-p65/p65); assay: Inflammation reaction inhibiting effect on dendritic cells (LPS): NF-κB activation, immunoblotting; format: cell-based; conditions: C57BL/6 mouse bone marrow dendritic cells + LPS, 90 minutes; lactic acid bacteria 1×10^4 CFU/ml
Text: as §4, §5

[10] = system: TNF-α; assay: Inflammation reaction inhibiting effect on macrophage (LPS): TNF-α expression, ELISA; format: cell-based; conditions: C57BL/6J mouse peritoneal macrophage + LPS; lactic acid bacteria 1×10^4 CFU/ml
Protocol: as §3, with “At that time, a treatment concentration of lactic acid bacteria was 1×10^4 CFU/ml. Also, in order to compare the effects of lactic acid bacteria, various prebiotics were used as the test material.” left out
An expression level of TNF-α from said obtained supernatant was measured by means of an ELISA kit. Also, the expression level of p65 (NF-κB), p-p65 (phosphor-NF-κB) and β-actin was measured from said obtained cells by means of an immunoblotting method. […] Then, such paper was washed three times for 15 minutes each, then subjected to fluorescent color formation, then developed, and then the intensity of chromophore band was measured.

Compound | Increasing rate Treg cell ([1]; BALF, FACS) | Inhibition rate Eosinophils ([1]; BALF, FACS) | Inhibition rate Th2 cell ([1]; BALF, FACS) | Increasing rate IL-10 ([1]; BALF) | Inhibition rate IL-4 ([1]; BALF) | Inhibition rate IL-5 ([1]; BALF) | Inhibition rate IL-4 ([1]; serum) | Inhibition rate IL-5 ([1]; serum) | Inhibition rate IgE ([1]; serum) | Differentiation inhibition rate Th17 cell [2] | Differentiation inhibition rate Th1 cell [3] | NF-κB activation inhibition rate (p-p65/p65) [4] | IL-12 expression inhibition rate [5] | Differentiation inhibition rate Th2 cell [6] | Differentiation increasing rate Treg cell [7] | IL-10 expression increasing rate [8] | NF-κB activation inhibition rate (p-p65/p65) [9] | TNF-α expression inhibition rate [10]
C[C@@H]1C[C@H]2[C@@H]3CCC4=CC(=O)C=C[C@]4(C)[C@@]3(F)[C@@H](O)C[C@]2(C)[C@@]1(O)C(=O)CO [Dx, dexamethasone] | − (<10%) | +++ (>60%) | +++ (>60%) | ++ (50-100%) | +++ (>60%) | +++ (>60%) | +++ (>60%) | ++ (30-60%) | +++ (>60%) | – | – | – | – | – | – | – | – | –
OC[C@H]1O[C@@H](O[C@@H]2[C@@H](CO)OC(O)(CO)[C@H]2O)[C@H](O)[C@@H](O)[C@H]1O (mixture of isomers) [Lactulose, lactulose] | – | – | – | – | – | – | – | – | – | − (<10%) | + (10-30%) | + (10-30%) | + (10-30%) | ++ (30-60%) | ++ (50-100%) | − (<10%) | + (10-30%) | –
cyclodextrin | – | – | – | – | – | – | – | – | – | ++ (30-60%) | ++ (30-60%) | + (10-30%) | + (10-30%) | + (10-30%) | + (10-50%) | − (<10%) | + (10-30%) | –
gelatin | – | – | – | – | – | – | – | – | – | + (10-30%) | + (10-30%) | + (10-30%) | + (10-30%) | ++ (30-60%) | + (10-50%) | + (10-50%) | + (10-30%) | + (10-30%)
OC[C@H]1O[C@H](O[C@H]2O[C@H](CO)[C@@H](O)[C@H](O)[C@H]2O)[C@H](O)[C@@H](O)[C@@H]1O [Trehalose, trehalose] | – | – | – | – | – | – | – | – | – | + (10-30%) | + (10-30%) | + (10-30%) | + (10-30%) | + (10-30%) | + (10-50%) | + (10-50%) | + (10-30%) | –
